Paper PMC7406541, “Vectorial transport of the arginine derivatives asymmetric dimethylarginine (ADMA) and L-homoarginine by OATP4C1 and P-glycoprotein studied in double-transfected MDCK cells” (Amino Acids, 2020)

How the values were obtained:
human P-gp = human P-gp (Homo sapiens, UniProt P08183); assay: Transcellular basal to apical (vectorial) transport across MDCK-P-gp cell monolayers; conditions: for Average ratio of vectorial transport (relative to MDCK-VC cells): MDCK-P-gp, 1 h incubation
[1] = system: human OATP4C1 and human P-gp; assay: Transcellular basal to apical (vectorial) transport across double-transfected MDCK-OATP4C1-P-gp cell monolayers; conditions: for Time-dependent transcellular transport in MDCK-OATP4C1-P-gp cells compared to the other tested cell lines: all time points 1, 2, 3 and 4 h; for Transport ratio MDCK-OATP4C1-P-gp/MDCK-VC: 50 µM, basolateral to apical; for Average ratio of vectorial transport (relative to MDCK-VC cells): MDCK-OATP4C1-P-gp, 1 h incubation
MDCK-VC cells = assay: Transcellular basal to apical transport across MDCK-VC control cell monolayers; assay type: in vitro ADME; conditions: 1 µM, 1 h
Protocol: Transcellular transport in MDCK-OATP4C1-P-gp double-transfectants and respective MDCK-OATP4C1 and MDCK-P-gp single-transfectants as well as in the MDCK-VC control cell line was analyzed as previously described (Taghikhani et al. [2017]). Cells were cultured in Transwell membrane inserts (14 mm diameter, 0.4 µm pore size; Greiner Bio-One, Frickenhausen, Germany) in an initial density of 5 × 10^5 cells/well. Cells were cultivated at 37 °C for 48 h before inducing them by replacing the medium with fresh medium containing 10 mM of sodium butyrate. After 24 h of further incubation, cells were used for transcellular transport studies.
To study the transcellular transport, cells were washed with pre-warmed (37 °C) uptake buffer applied to both the basolateral and apical compartment. […] After incubating the cells for stated time points, the amount of radioactivity on the apical compartment was measured by liquid scintillation counting.
Concentration dependency of transcellular transport of ADMA and L-homoarginine was studied by applying the respective compound in concentrations of 1, 20, 50 and 100 µM on the basolateral compartment of MDCK transfectants. […] Cells were lysed and the cellular protein content was quantified as described. 400 µl (or 80 µl for time-dependency analysis) of the applied donor solutions were also analyzed by scintillation counting as reference. […]

human OATP4C1 = assay: Transcellular basal to apical (vectorial) transport across MDCK-OATP4C1 cell monolayers; conditions: 1 h incubation
[2] = design: method as in Kielstein et al. [2009]; conditions: ref Kielstein et al. [2009]; cited from earlier work
CAT1 = system: CAT1; design: method as in Chafai et al. [2017]; conditions: ref Chafai et al. [2017]; read-out: Km value for CAT1-mediated uptake; cited from earlier work
OATP4C1 = system: OATP4C1; design: method as in Taghikhani et al. [2019]; conditions: ref Taghikhani et al. [2019]; read-out: Km value as substrate of OATP4C1; cited from earlier work

Sequence of human P-gp (P08183 whole entry): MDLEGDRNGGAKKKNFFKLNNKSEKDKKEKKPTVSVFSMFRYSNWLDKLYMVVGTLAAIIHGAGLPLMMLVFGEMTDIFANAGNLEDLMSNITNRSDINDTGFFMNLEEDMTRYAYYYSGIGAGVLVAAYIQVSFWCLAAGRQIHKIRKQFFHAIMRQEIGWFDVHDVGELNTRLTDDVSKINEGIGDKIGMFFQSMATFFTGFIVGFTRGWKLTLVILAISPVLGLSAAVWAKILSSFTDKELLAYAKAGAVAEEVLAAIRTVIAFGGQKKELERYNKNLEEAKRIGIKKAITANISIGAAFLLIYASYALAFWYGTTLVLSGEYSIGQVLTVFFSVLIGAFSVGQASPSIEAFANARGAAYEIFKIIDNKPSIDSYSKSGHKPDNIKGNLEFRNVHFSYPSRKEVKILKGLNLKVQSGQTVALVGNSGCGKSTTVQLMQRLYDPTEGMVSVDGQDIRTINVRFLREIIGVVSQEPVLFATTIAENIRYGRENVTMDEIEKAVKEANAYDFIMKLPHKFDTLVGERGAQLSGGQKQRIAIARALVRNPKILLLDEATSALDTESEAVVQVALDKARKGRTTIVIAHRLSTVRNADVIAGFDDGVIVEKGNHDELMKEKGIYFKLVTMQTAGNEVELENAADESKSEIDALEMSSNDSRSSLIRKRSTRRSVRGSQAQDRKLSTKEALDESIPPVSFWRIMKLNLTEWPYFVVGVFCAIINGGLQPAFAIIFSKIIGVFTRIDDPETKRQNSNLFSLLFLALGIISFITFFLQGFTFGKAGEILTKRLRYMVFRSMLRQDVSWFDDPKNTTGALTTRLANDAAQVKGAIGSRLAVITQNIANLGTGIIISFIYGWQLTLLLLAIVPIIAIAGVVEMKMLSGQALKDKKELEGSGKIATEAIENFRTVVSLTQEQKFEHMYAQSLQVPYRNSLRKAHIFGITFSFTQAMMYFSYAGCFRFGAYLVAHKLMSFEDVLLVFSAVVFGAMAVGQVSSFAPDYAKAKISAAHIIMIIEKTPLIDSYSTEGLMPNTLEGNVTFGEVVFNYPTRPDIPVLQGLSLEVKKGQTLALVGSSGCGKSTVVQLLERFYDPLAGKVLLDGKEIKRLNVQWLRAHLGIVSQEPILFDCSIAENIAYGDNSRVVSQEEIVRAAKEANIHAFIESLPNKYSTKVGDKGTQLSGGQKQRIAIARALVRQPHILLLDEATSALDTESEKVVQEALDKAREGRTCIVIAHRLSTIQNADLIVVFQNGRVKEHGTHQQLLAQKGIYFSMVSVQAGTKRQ

| SMILES | Average ratio of vectorial transport (relative to MDCK-VC cells) (human P-gp; 1 µM basal) | Average ratio of vectorial transport (relative to MDCK-VC cells) (human P-gp; 20 µM basal) | Average ratio of vectorial transport (relative to MDCK-VC cells) (human P-gp; 50 µM basal) | Average ratio of vectorial transport (relative to MDCK-VC cells) (human P-gp; 100 µM basal) | Time-dependent transcellular transport in MDCK-OATP4C1-P-gp cells compared to the other tested cell lines ([1]; 1 µM) | Transport ratio MDCK-OATP4C1-P-gp/MDCK-VC [1] [fold] | Average ratio of vectorial transport (relative to MDCK-VC cells) ([1]; 1 µM basal) | Average ratio of vectorial transport (relative to MDCK-VC cells) ([1]; 20 µM basal) | Average ratio of vectorial transport (relative to MDCK-VC cells) ([1]; 50 µM basal) | Average ratio of vectorial transport (relative to MDCK-VC cells) ([1]; 100 µM basal) | Average ratio of vectorial transport (relative to MDCK-VC cells) (human OATP4C1; 1 µM basal) | Average ratio of vectorial transport (relative to MDCK-VC cells) (human OATP4C1; 20 µM basal) | Average ratio of vectorial transport (relative to MDCK-VC cells) (human OATP4C1; 50 µM basal) | Average ratio of vectorial transport (relative to MDCK-VC cells) (human OATP4C1; 100 µM basal) | further results |
| --- | --- | --- | --- | --- | --- | --- | --- | --- | --- | --- | --- | --- | --- | --- | --- |
| CN(C)C(N)=NCCC[C@H](N)C(=O)O [ADMA, asymmetric dimethylarginine] | 1.10 | 1.19 | 1.20 | 1.30 | significantly higher | 2.0 | 1.92 | 1.87 | 2.00 | 1.83 | 1.17 | 1.19 | 1.14 | 1.20 | Transport ratio MDCK-OATP4C1-P-gp vs MDCK-VC ([1]; 1 µM, 1 h): 1.92 fold; Transcellular transport rate ([1]; MDCK-OATP4C1-P-gp cells, 1 µM, basal to apical, 1 h): 9.2 ± 1.2 pmol × mg protein^−1 × min^−1; Transcellular transport rate (MDCK-VC cells): 4.8 ± 0.4 pmol × mg protein^−1 × min^−1; Share excreted unchanged into urine [2]: 20%; Share taken up into proximal tubule cells that is metabolized (e.g. by DDAH1) [2]: ~80% |
| C[C@H]1O[C@@H](O[C@H]2[C@@H](O)C[C@H](O[C@H]3[C@@H](O)C[C@H](O[C@H]4CC[C@@]5(C)[C@H](CC[C@@H]6[C@@H]5C[C@@H](O)[C@]5(C)[C@@H](C7=CC(=O)OC7)CC[C@]65O)C4)O[C@@H]3C)O[C@@H]2C)C[C@H](O)[C@@H]1O [digoxin, reference compound] |  |  |  |  |  |  |  |  |  |  |  |  |  |  | Transcellular transport in MDCK-P-gp in comparison to MDCK-VC (human P-gp; 5 µM, incubation time 1 h): 1.7 fold |
| NC(N)=NCCCC[C@H](N)C(=O)O [L-homoarginine] | 1.11 | 1.61 | 1.45 | 1.43 | significantly higher | 3.4 | 3.44 | 3.94 | 3.41 | 6.65 | 1.33 | 1.92 | 2.09 | 2.31 | Km (CAT1): 175 µM; Km (OATP4C1): 49.9 µM |
